Like-named read-outs stand apart in the source and are kept apart here. Bounds are passed on as bounds.

For orientation: EC50 means the concentration giving half of the maximal effect. As a reminder, the Emax is the maximal effect, on the per cent scale that the assay sets.

For the assay, the target named is T1, F508delCFTR (Homo sapiens, UniProt P13569, DEL508-508).
T1 construct: expressed in transfected cells; host or cells: CFBE4lo-F508delCFTR-HRP cells (human lung derived epithelial cell line, doxycycline-inducible)
Kind of assay: Cell Surface Expression-Horse Radish Peroxidase (CSE-HRP) Assay. The conditions noted are these: for EC50: CFBE4lo-F508delCFTR-HRP cells, 18-24 hours at 33° C.; for Emax / Maximum % activity (with co-corrector): maximum at any tested concentration (up to 20 μM), normalized to on-plate positive control (2 μM co-corrector); for Maximum % activity (with co-corrector): with co-corrector 2 μM. The class given is cell-based. In a few lines: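 CFBE4lo− cells expressing F508delCFTR with HRP in the fourth exofacial loop, induced 72 h with 0.5 μg/mL doxycycline, then treated 18-24 h at 33° C, alone or with 2 μM co-corrector (8 points, 3-fold, top 20 μM). Luminol luminescence after washing; % activity normalized to DMSO and 2 μM positive control; sigmoidal EC50 from triplicate plates.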

The mark [1] stands for this setting: test compound without co-corrector, HRP luminescence readout, read-out: EC50 (without co-corrector).
[2] abbreviates: test compound without co-corrector.
Setting [3] is: with co-corrector 2 μM 3-[(2R,4R)-4-({[1-(2,2-difluoro-1,3-benzodioxol-5-yl)cyclopropyl]carbonyl}amino)-7-methoxy-3,4-dihydro-2H-chromen-2-yl]benzoic acid, read-out: EC50 (with co-corrector).

T1 sequence (P13569 with tags, fused parts or gaps DEL508-508): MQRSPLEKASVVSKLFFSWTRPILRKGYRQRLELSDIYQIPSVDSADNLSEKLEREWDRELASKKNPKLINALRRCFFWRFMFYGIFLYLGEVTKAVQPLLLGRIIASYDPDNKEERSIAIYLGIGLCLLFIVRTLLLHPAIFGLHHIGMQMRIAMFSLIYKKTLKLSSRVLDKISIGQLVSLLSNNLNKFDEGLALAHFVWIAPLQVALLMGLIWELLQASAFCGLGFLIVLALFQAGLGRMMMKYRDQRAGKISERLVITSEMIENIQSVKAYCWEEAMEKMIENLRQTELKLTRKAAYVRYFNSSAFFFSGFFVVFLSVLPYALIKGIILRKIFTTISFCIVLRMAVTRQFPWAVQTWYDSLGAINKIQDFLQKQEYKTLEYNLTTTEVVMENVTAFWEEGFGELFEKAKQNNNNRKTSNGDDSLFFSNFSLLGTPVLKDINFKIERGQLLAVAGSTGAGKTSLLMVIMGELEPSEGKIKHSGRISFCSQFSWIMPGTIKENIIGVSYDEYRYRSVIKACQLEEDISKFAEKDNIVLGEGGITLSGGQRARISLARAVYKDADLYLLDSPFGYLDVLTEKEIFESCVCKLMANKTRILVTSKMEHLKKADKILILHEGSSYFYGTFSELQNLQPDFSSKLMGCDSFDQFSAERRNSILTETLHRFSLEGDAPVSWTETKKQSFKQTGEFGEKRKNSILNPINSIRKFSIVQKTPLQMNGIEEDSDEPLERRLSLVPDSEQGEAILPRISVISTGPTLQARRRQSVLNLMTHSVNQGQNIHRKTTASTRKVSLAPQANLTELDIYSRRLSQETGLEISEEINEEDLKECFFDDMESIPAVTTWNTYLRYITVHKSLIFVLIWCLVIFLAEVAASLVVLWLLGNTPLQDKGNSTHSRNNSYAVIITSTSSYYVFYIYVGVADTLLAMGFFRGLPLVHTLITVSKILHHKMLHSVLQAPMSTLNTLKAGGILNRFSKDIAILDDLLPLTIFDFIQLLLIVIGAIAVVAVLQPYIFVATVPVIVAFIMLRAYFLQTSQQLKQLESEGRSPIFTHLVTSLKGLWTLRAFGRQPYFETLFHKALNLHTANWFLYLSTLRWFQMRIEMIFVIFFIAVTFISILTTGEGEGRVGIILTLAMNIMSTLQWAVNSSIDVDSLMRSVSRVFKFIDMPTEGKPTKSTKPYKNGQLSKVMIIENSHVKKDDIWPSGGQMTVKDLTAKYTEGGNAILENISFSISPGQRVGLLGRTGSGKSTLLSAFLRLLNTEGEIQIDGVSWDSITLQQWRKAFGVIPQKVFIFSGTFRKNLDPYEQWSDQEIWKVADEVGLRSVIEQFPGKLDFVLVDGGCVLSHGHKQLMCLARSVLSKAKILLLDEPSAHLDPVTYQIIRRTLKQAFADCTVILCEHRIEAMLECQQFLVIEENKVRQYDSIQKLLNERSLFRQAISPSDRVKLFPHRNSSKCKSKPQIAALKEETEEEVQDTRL

In the case of `COc1ccc(Cl)c2c1C(C(=O)NS(=O)(=O)c1cccc3ccccc13)CO2` (stereo not drawn) [Example 63, 7-chloro-4-methoxy-N-(naphthalene-1-sulfonyl)-2,3-dihydro-1-benzofuran-3-carboxamide], the “Maximum % activity (with co-corrector)” value was “+++ (≥350)”. Also, the EC50 under setting [1] was 3 to 10 µM. Besides, under setting [2], the Emax was no less than 150%. Further, the EC50 under setting [3] is less than 3 µM.
`COc1ccc(C2CC2)c2c1C(C(=O)NS(=O)(=O)c1cccc3ccccc13)CCO2` (stereo not drawn) [Example 64, 8-cyclopropyl-5-methoxy-N-(naphthalene-1-sulfonyl)-3,4-dihydro-2H-1-benzopyran-4-carboxamide]: the “Maximum % activity (with co-corrector)” value is “+++ (≥350)”. The EC50 under setting [1] lay in the range of 3 to 10 µM. The molecule further registered an Emax under setting [2] of no less than 150%. Besides, the EC50 under setting [3] is less than 3 µM.
The like results for `COc1ccc(C2CCC2)c2c1[C@@H](C(=O)NS(=O)(=O)c1cccc3ccccc13)CO2` [Example 66, (3R)-7-cyclobutyl-4-methoxy-N-(naphthalene-1-sulfonyl)-2,3-dihydro-1-benzofuran-3-carboxamide] were, in that order, “+++ (≥350)”, less than 3 µM, no less than 150% and less than 3 µM.
For the molecule `COc1ccc(Br)c2c1[C@@H](C(=O)NS(=O)(=O)c1cccc3cnn(C)c13)CCO2` [Example 69, (4S)-8-bromo-5-methoxy-N-(1-methyl-1H-indazole-7-sulfonyl)-3,4-dihydro-2H-1-benzopyran-4-carboxamide], the “Maximum % activity (with co-corrector)” value was “++ (≥150 and <350)”. In addition, the EC50 under setting [1] is 3 to 10 µM. This molecule also came in with an Emax under setting [2] of 50 to 150%. Under setting [3], the EC50 lay within 3 to 10 µM.
For `COc1ccc(Br)c2c1[C@H](C(=O)NS(=O)(=O)c1cccc3cnn(C)c13)CCO2` [Example 70, (4R)-8-bromo-5-methoxy-N-(1-methyl-1H-indazole-7-sulfonyl)-3,4-dihydro-2H-1-benzopyran-4-carboxamide], the “Maximum % activity (with co-corrector)” value is given as “+++ (≥350)”. The EC50 under setting [1] is less than 3 µM. This molecule displayed an Emax under setting [2] of no less than 150%. Besides, the EC50 under setting [3] is less than 3 µM.
As to `COc1ccc(Br)c2c1[C@@H](C(=O)NS(=O)(=O)c1cccc3ncccc13)CC(C)(C)O2` [Example 71, (4S)-8-bromo-5-methoxy-2,2-dimethyl-N-(quinoline-5-sulfonyl)-3,4-dihydro-2H-1-benzopyran-4-carboxamide], the “Maximum % activity (with co-corrector)” value is reported as “+++ (≥350)”. In addition, the EC50 under setting [1] was in the range of 3 to 10 µM. The molecule further displayed an Emax under setting [2] of no less than 150%. Moreover, the EC50 under setting [3] is less than 3 µM.
As for `COc1ccc(Br)c2c1[C@H](C(=O)NS(=O)(=O)c1cccc3ncccc13)CC(C)(C)O2` [Example 72, (4R)-8-bromo-5-methoxy-2,2-dimethyl-N-(quinoline-5-sulfonyl)-3,4-dihydro-2H-1-benzopyran-4-carboxamide], the “Maximum % activity (with co-corrector)” value is “+++ (≥350)”. Further, the EC50 under setting [1] was less than 3 µM. Further, under setting [2], the maximal response (Emax) was no less than 150%. Besides, the EC50 under setting [3] is less than 3 µM.
On to `COc1ccc(C2CCC2)c2c1[C@@H](C(=O)NS(=O)(=O)c1cccc3nc(C)ccc13)CCO2` [Example 76, (4S)-8-cyclobutyl-5-methoxy-N-(2-methylquinoline-5-sulfonyl)-3,4-dihydro-2H-1-benzopyran-4-carboxamide], for which the “Maximum % activity (with co-corrector)” value is listed as “+++ (≥350)”. Under setting [1], the EC50 lay in the range of 3 to 10 µM. For the same molecule, the Emax under setting [2] is no less than 150%. Besides, the EC50 under setting [3] lay in the range of 3 to 10 µM.
Take `COc1ccc(C2CCC2)c2c1[C@H](C(=O)NS(=O)(=O)c1cccc3nc(C)ccc13)CCO2` [Example 77, (4R)-8-cyclobutyl-5-methoxy-N-(2-methylquinoline-5-sulfonyl)-3,4-dihydro-2H-1-benzopyran-4-carboxamide]: the “Maximum % activity (with co-corrector)” value is on record as “+++ (≥350)”. Moreover, the half-maximal effective concentration (EC50) under setting [1] was 3 to 10 µM. This molecule also registered an Emax under setting [2] of no less than 150%. For the same molecule, the EC50 under setting [3] was less than 3 µM.
`COc1ccc(Br)c2c1C(C(=O)NS(=O)(=O)c1cccc3ccccc13)OCC2` (stereo not drawn) [Example 78, 5-bromo-8-methoxy-N-(naphthalene-1-sulfonyl)-3,4-dihydro-1H-2-benzopyran-1-carboxamide]: the “Maximum % activity (with co-corrector)” value is listed as “+++ (≥350)”. Moreover, the concentration for a half-maximal effect (EC50) under setting [1] was less than 3 µM. The same molecule gave an Emax under setting [2] of no less than 150%. Under setting [3], the EC50 is less than 3 µM.
Take `COc1ccc(C2CCC2)c2c1C(C(=O)NS(=O)(=O)c1cccc3ccccc13)OCC2` (stereo not drawn) [Example 79, 5-cyclobutyl-8-methoxy-N-(naphthalene-1-sulfonyl)-3,4-dihydro-1H-2-benzopyran-1-carboxamide]: the “Maximum % activity (with co-corrector)” value was “+++ (≥350)”. The concentration for a half-maximal effect (EC50) under setting [1] is 3 to 10 µM. Moreover, the Emax under setting [2] is no less than 150%. Also, under setting [3], the EC50 was less than 3 µM.
`COc1ccc(C2CCC2)c2c1C(C(=O)NS(=O)(=O)c1cccc3ncccc13)CO2` (stereo not drawn) [Example 80, 7-cyclobutyl-4-methoxy-N-(quinoline-5-sulfonyl)-2,3-dihydro-1-benzofuran-3-carboxamide]: the “Maximum % activity (with co-corrector)” value is given as “+++ (≥350)”. In addition, under setting [1], the EC50 was less than 3 µM. The Emax under setting [2] is no less than 150%. In addition, the EC50 under setting [3] is less than 3 µM.
On to `COc1ccc(C2CCC2)c2c1C(C(=O)NS(=O)(=O)c1cccc3ncccc13)OCC2` (stereo not drawn) [Example 81, 5-cyclobutyl-8-methoxy-N-(quinoline-5-sulfonyl)-3,4-dihydro-1H-2-benzopyran-1-carboxamide], for which the “Maximum % activity (with co-corrector)” value is on record as “+++ (≥350)”. The EC50 under setting [1] was in the range of 3 to 10 µM. Besides, the Emax under setting [2] is no less than 150%. Besides, the EC50 under setting [3] is less than 3 µM.
The matching figures for `COc1ccc(C2CCC2)c2c1C(C(=O)NS(=O)(=O)c1cccc3c1CCCN3)CCO2` (stereo not drawn) [Example 85, 8-cyclobutyl-5-methoxy-N-(1,2,3,4-tetrahydroquinoline-5-sulfonyl)-3,4-dihydro-2H-1-benzopyran-4-carboxamide]: “+++ (≥350)”, less than 3 µM, no less than 150% and less than 3 µM.
The like results for `COc1ccc(C2CCC2)c2c1[C@H](C(=O)NS(=O)(=O)c1cccc3ncccc13)CC(C)(C)O2` [Example 86, (4R)-8-cyclobutyl-5-methoxy-2,2-dimethyl-N-(quinoline-5-sulfonyl)-3,4-dihydro-2H-1-benzopyran-4-carboxamide] were, in that order, “+++ (≥350)”, less than 3 µM, no less than 150% and less than 3 µM.
The matching figures for `COc1ccc(C2CCC2)c2c1C(C(=O)NS(=O)(=O)c1cccc3ncn(C)c13)CO2` (stereo not drawn) [Example 87, 7-cyclobutyl-4-methoxy-N-(1-methyl-1H-benzimidazole-7-sulfonyl)-2,3-dihydro-1-benzofuran-3-carboxamide]: “+++ (≥350)”, less than 3 µM, no less than 150% and less than 3 µM.
For `COc1ccc(C2CCC2)c2c1C(C(=O)NS(=O)(=O)c1cccn3nccc13)CO2` (stereo not drawn) [Example 88, 7-cyclobutyl-4-methoxy-N-(pyrazolo[1,5-a]pyridine-4-sulfonyl)-2,3-dihydro-1-benzofuran-3-carboxamide], the “Maximum % activity (with co-corrector)” value was “+++ (≥350)”. In addition, under setting [1], the EC50 lay in the range of 3 to 10 µM. Under setting [2], this molecule gave an Emax of no less than 150%. Moreover, the EC50 under setting [3] is less than 3 µM.
The matching figures for `COc1ccc(C2CCC2)c2c1C(C(=O)NS(=O)(=O)c1cccc3c1NCCC3)CO2` (stereo not drawn) [Example 90, 7-cyclobutyl-4-methoxy-N-(1,2,3,4-tetrahydroquinoline-8-sulfonyl)-2,3-dihydro-1-benzofuran-3-carboxamide]: “+++ (≥350)”, 3 to 10 µM, no less than 150% and less than 3 µM.
The matching figures for `COc1ccc(C2CCC2)c2c1[C@@H](C(=O)NS(=O)(=O)c1cccc3c1CCCN3)CCO2` [Example 91, (4S)-8-cyclobutyl-5-methoxy-N-(1,2,3,4-tetrahydroquinoline-5-sulfonyl)-3,4-dihydro-2H-1-benzopyran-4-carboxamide]: “+++ (≥350)”, 3 to 10 µM, no less than 150% and 3 to 10 µM.
The like results for `COc1ccc(C2CCC2)c2c1[C@H](C(=O)NS(=O)(=O)c1cccc3c1CCCN3)CCO2` [Example 92, (4R)-8-cyclobutyl-5-methoxy-N-(1,2,3,4-tetrahydroquinoline-5-sulfonyl)-3,4-dihydro-2H-1-benzopyran-4-carboxamide] were, in that order, “+++ (≥350)”, less than 3 µM, no less than 150% and less than 3 µM.
As to `COc1ccc(C2CCC2)c2c1C(C(=O)NS(=O)(=O)c1cccc3c1CCCN3)CC(C)(C)O2` (stereo not drawn) [Example 93, 8-cyclobutyl-5-methoxy-2,2-dimethyl-N-(1,2,3,4-tetrahydroquinoline-5-sulfonyl)-3,4-dihydro-2H-1-benzopyran-4-carboxamide], the “Maximum % activity (with co-corrector)” value is recorded as “+++ (≥350)”. For the same molecule, the EC50 under setting [1] is less than 3 µM. Under setting [2], this molecule came in with an Emax of no less than 150%. In addition, under setting [3], the EC50 is less than 3 µM.

Source of the values: US10428017B2, “Modulators of the cystic fibrosis transmembrane conductance regulator protein and methods of use” (AbbVie S.à.r.l., priority 2017, dated 2019).
